Test results taken from patent publication US11524968B2, “Heterocyclic compound as a protein kinase inhibitor” (HK inno.N Corporation, priority 2017, dated 2022).

Each molecule was assayed against JAK1 (Homo sapiens (Human), UniProt P23458) (assay: Analysis of JAK1 activity inhibition ability (ADP-Glo Kinase Assay)). Conditions: JAK1 enzyme, ADP-Glo luminescence, ATP 250 uM, IRS-itide substrate, 30° C. 40 minutes; read-out: IC50.
Format: biochemical
Protocol: Test Example 1: Analysis of JAK1 Activity Inhibition Ability of Compound of Formula 1 (ADP-Glo™ Kinase Assay)
A JAK inhibition ability of a compound according to the present invention was identified as follows.
A control material and a test material were prepared for each concentration, in such a way that they were diluted by means of DMSO. At the same time, ATP (250 uM) and JAK substrate (JAK1, IRS-itide 40 ng/mL) were prepared, in such a way that they were diluted by means of kinase buffer (40 mM Tris-HCl pH 7.5, 20 mM MgCl2, 0.5 mg/mL BSA, 50 uM DTT).
A test drug for each concentration, substrate, ATP and JAK enzyme were mixed in an eppendorf tube, and reacted in a 30° C. incubator for 40 minutes.
ADP-Glo™ reagent contained in ADP-Glo™ Kinase Enzyme System (Promega, USA, V9571) was added into each eppendorf tube, and reacted in a 30° C. incubator for 40 minutes. A kinase detection reagent contained in ADP-Go™ Kinase Enzyme System was inserted into the eppendorf tube, then an integration time was set to 1 second by using Wallac Victor 2™, then luminescence was measured, and then JAKs phosphorylation inhibition ability of the test material was analyzed. The concentration of the compound, which causes 50% of the JAK enzyme activity inhibition in comparison With the control group, was determined as IC50 (nM) of an inhibitor, wherein the results thereof are shown in a following table 1.

Sequence of JAK1 (P23458 whole entry): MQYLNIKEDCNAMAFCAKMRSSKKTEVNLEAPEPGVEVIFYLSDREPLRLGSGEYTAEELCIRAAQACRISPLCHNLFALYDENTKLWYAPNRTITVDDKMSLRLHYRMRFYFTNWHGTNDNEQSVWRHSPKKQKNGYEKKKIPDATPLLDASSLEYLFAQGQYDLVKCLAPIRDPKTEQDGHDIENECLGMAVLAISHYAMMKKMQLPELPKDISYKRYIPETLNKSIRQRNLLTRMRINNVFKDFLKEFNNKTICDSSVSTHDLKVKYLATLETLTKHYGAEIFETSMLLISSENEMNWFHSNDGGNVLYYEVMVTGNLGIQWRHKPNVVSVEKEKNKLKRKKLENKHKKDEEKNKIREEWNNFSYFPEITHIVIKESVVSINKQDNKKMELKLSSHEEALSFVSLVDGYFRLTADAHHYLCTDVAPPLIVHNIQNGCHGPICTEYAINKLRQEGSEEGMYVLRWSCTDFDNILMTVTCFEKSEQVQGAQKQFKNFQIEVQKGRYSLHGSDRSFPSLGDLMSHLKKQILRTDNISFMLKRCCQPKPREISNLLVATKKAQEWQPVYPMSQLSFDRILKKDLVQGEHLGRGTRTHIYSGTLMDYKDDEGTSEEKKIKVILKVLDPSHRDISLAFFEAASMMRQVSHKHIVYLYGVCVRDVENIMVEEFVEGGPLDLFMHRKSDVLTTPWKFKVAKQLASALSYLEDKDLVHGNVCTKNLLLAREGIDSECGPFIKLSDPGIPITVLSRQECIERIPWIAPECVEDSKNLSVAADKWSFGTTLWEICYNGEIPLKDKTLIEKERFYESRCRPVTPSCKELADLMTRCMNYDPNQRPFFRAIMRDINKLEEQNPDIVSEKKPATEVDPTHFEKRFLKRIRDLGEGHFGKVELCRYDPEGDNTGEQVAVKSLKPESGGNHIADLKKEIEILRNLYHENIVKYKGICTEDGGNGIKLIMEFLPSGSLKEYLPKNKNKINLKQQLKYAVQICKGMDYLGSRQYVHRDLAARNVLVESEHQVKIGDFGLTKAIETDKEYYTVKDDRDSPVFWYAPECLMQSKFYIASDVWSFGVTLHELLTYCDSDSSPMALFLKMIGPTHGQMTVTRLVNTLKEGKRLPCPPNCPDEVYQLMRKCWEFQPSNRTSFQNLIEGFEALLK

| SMILES | IC50 [µM] |
| --- | --- |
| CCS(=O)(=O)Nc1ccc(-c2cc(NC(=O)C3CC3)nc3[nH]ccc23)c(C)c1 [Example 29, N-(4-(4-(ethylsulfonamido)-2-methylphenyl)-1H-pyrrolo[2,3-b]pyridin-6-yl)cyclopropanecarboxamide] | < 0.02 |
| CCS(=O)(=O)Nc1ccc(-c2cc(NC(=O)C3CC3)nc3[nH]ccc23)c(F)c1 [Example 30, N-(4-(4-(ethylsulfonamido)-2-fluorophenyl)-1H-pyrrolo[2,3-b]pyridin-6-yl)cyclopropanecarboxamide] | < 0.02 |
| O=C(Nc1cc(-c2ccc(NS(=O)(=O)c3ccc(Br)c(F)c3)cc2)c2cc[nH]c2n1)C1CC1 [Example 31, N-(4-(4-((4-bromo-3-fluorophenyl)sulfonamido)phenyl)-1H-pyrrolo[2,3-b]pyridin-6-yl)cyclopropanecarboxamide] | 0.02 to 0.2 |
| O=C(Nc1cc(-c2ccc(NS(=O)(=O)c3ccc(Br)cc3F)cc2)c2cc[nH]c2n1)C1CC1 [Example 32, N-(4-(4-((4-bromo-2-fluorophenyl)sulfonamido)phenyl)-1H-pyrrolo[2,3-b]pyridin-6-yl)cyclopropanecarboxamide] | 0.02 to 0.2 |
| O=C(Nc1cc(-c2ccc(NS(=O)(=O)c3ccc(Cl)c(C(F)(F)F)c3)cc2)c2cc[nH]c2n1)C1CC1 [Example 33, N-(4-(4-((4-chloro-3-(trifluoromethyl)phenyl)sulfonamido)phenyl)-1H-pyrrolo[2,3-b]pyridin-6-yl)cyclopropanecarboxamide] | 0.02 to 0.2 |
| O=C(Nc1cc(-c2ccc(NS(=O)(=O)c3ccc4c(c3)OCO4)cc2)c2cc[nH]c2n1)C1CC1 [Example 34, N-(4-(4-(benzo[d][1,3]dioxole-5-sulfonamido)phenyl)-1H-pyrrolo[2,3-b]pyridin-6-yl)cyclopropanecarboxamide] | < 0.02 |
| CCS(=O)(=O)Nc1ccc(-c2cc(NC(=O)C3CC3C)nc3[nH]ccc23)cc1 (centres unmarked) [Example 35, N-(4-(4-(ethylsulfonamido)phenyl)-1H-pyrrolo[2,3-b]pyridin-6-yl)-2-methylcyclopropane-1-carboxamide] | < 0.02 |
| O=C(Nc1cc(-c2ccc(NS(=O)(=O)Cc3ccc(F)cc3)cc2)c2cc[nH]c2n1)C1CC1 [Example 36, N-(4-(4-(((4-fluorophenyl)methyl)sulfonamido)phenyl)-1H-pyrrolo[2,3-b]pyridin-6-yl)cyclopropanecarboxamide] | < 0.02 |
| CN(C)S(=O)(=O)c1ccc(S(=O)(=O)Nc2ccc(-c3cc(NC(=O)C4CC4)nc4[nH]ccc34)cc2)cc1 [Example 37, N-(4-(4-((4-(N,N-dimethylsulfamoyl)phenyl)sulfonamido)phenyl)-1H-pyrrolo[2,3-b]pyridin-6-yl)cyclopropanecarboxamide] | 0.02 to 0.2 |
| O=C(Nc1cc(-c2ccc(NS(=O)(=O)c3ccc4c(c3)OCCO4)cc2)c2cc[nH]c2n1)C1CC1 [Example 38, N-(4-(4-((2,3-dihydrobenzo[b][1,4]dioxine)-6-sulfonamido)phenyl)-1H-pyrrolo[2,3-b]pyridin-6-yl)cyclopropanecarboxamide] | 0.02 to 0.2 |
| O=C(Nc1cc(-c2ccc(NS(=O)(=O)c3ccc(-n4cnnn4)cc3)cc2)c2cc[nH]c2n1)C1CC1 [Example 39, N-(4-(4-((4-(1H-tetrazol-1-yl)phenyl)sulfonamido)phenyl)-1H-pyrrolo[2,3-b]pyridin-6-yl)cyclopropanecarboxamide] | 0.02 to 0.2 |
| N#Cc1ccc(S(=O)(=O)Nc2ccc(-c3cc(NC(=O)C4CC4)nc4[nH]ccc34)cc2)cn1 [Example 40, N-(4-(4-((6-cyanopyridine)-3-sulfonamido)phenyl)-1H-pyrrolo[2,3-b]pyridin-6-yl)cyclopropanecarboxamide] | 0.02 to 0.2 |
| CC(C)S(=O)(=O)Nc1ccc(-c2cc(NC(=O)C3CC3)nc3[nH]ccc23)cc1 [Example 41, N-(4-(4-((1-methylethyl)sulfonamido)phenyl)-1H-pyrrolo[2,3-b]pyridin-6-yl)cyclopropanecarboxamide] | < 0.02 |
| CCC(CC)S(=O)(=O)Nc1ccc(-c2cc(NC(=O)C3CC3)nc3[nH]ccc23)cc1 [Example 42, N-(4-(4-((1-ethylpropyl)sulfonamido)phenyl)-1H-pyrrolo[2,3-b]pyridin-6-yl)cyclopropanecarboxamide] | < 0.02 |
| CC(C)CS(=O)(=O)Nc1ccc(-c2cc(NC(=O)C3CC3)nc3[nH]ccc23)cc1 [Example 43, N-(4-(4-((2-methylpropyl)sulfonamido)phenyl)-1H-pyrrolo[2,3-b]pyridin-6-yl)cyclopropanecarboxamide] | < 0.02 |
| CC(C)(C)CS(=O)(=O)Nc1ccc(-c2cc(NC(=O)C3CC3)nc3[nH]ccc23)cc1 [Example 44, N-(4-(4-((2,2-dimethylpropyl)sulfonamido)phenyl)-1H-pyrrolo[2,3-b]pyridin-6-yl)cyclopropanecarboxamide] | < 0.02 |

| SMILES | IC50 [µM] |
| --- | --- |
| CC(C)CCS(=O)(=O)Nc1ccc(-c2cc(NC(=O)C3CC3)nc3[nH]ccc23)cc1 [Example 45, N-(4-(4-((3-methylbutyl)sulfonamido)phenyl)-1H-pyrrolo[2,3-b]pyridin-6-yl)cyclopropanecarboxamide] | < 0.02 |
| O=C(Nc1cc(-c2ccc(NS(=O)(=O)CC3CC3)cc2)c2cc[nH]c2n1)C1CC1 [Example 46, N-(4-(4-((cyclopropylmethyl)sulfonamido)phenyl)-1H-pyrrolo[2,3-b]pyridin-6-yl)cyclopropanecarboxamide] | < 0.02 |
| O=C(Nc1cc(-c2ccc(NS(=O)(=O)CC3CCCCC3)cc2)c2cc[nH]c2n1)C1CC1 [Example 47, N-(4-(4-((cyclohexylmethyl)sulfonamido)phenyl)-1H-pyrrolo[2,3-b]pyridin-6-yl)cyclopropanecarboxamide] | < 0.02 |
| C=CCS(=O)(=O)Nc1ccc(-c2cc(NC(=O)C3CC3)nc3[nH]ccc23)cc1 [Example 48, N-(4-(4-(allylsulfonamido)phenyl)-1H-pyrrolo[2,3-b]pyridin-6-yl)cyclopropanecarboxamide] | < 0.02 |
| O=C(Nc1cc(-c2ccc(NS(=O)(=O)CF)cc2)c2cc[nH]c2n1)C1CC1 [Example 49, N-(4-(4-((fluoromethyl)sulfonamido)phenyl)-1H-pyrrolo[2,3-b]pyridin-6-yl)cyclopropanecarboxamide] | 0.02 to 0.2 |
| O=C(Nc1cc(-c2ccc(NS(=O)(=O)C(F)F)cc2)c2cc[nH]c2n1)C1CC1 [Example 50, N-(4-(4-((difluoromethyl)sulfonamido)phenyl)-1H-pyrrolo[2,3-b]pyridin-6-yl)cyclopropanecarboxamide] | 0.02 to 0.2 |
| O=C(Nc1cc(-c2ccc(NS(=O)(=O)CC(F)F)cc2)c2cc[nH]c2n1)C1CC1 [Example 51, N-(4-(4-((2,2-difluoroethyl)sulfonamido)phenyl)-1H-pyrrolo[2,3-b]pyridin-6-yl)cyclopropanecarboxamide] | 0.02 to 0.2 |
| N#CCCCS(=O)(=O)Nc1ccc(-c2cc(NC(=O)C3CC3)nc3[nH]ccc23)cc1 [Example 52, N-(4-(4-((3-cyanopropyl)sulfonamido)phenyl)-1H-pyrrolo[2,3-b]pyridin-6-yl)cyclopropanecarboxamide] | < 0.02 |
| CCOCCS(=O)(=O)Nc1ccc(-c2cc(NC(=O)C3CC3)nc3[nH]ccc23)cc1 [Example 53, N-(4-(4-((2-ethoxyethyl)sulfonamido)phenyl)-1H-pyrrolo[2,3-b]pyridin-6-yl)cyclopropanecarboxamide] | 0.02 to 0.2 |
| O=C(Nc1cc(-c2ccc(NS(=O)(=O)CC3CCOC3)cc2)c2cc[nH]c2n1)C1CC1 (centres unmarked) [Example 54, N-(4-(4-(((tetrahydrofuran-3-yl)methyl)sulfonamido)phenyl)-1H-pyrrolo[2,3-b]pyridin-6-yl)cyclopropanecarboxamide] | < 0.02 |
| O=C(Nc1cc(-c2ccc(NS(=O)(=O)CC3CCOCC3)cc2)c2cc[nH]c2n1)C1CC1 [Example 55, N-(4-(4-(((tetrahydro-2H-pyran-4-yl)methyl)sulfonamido)phenyl)-1H-pyrrolo[2,3-b]pyridin-6-yl)cyclopropanecarboxamide] | < 0.02 |
| CS(=O)(=O)CCS(=O)(=O)Nc1ccc(-c2cc(NC(=O)C3CC3)nc3[nH]ccc23)cc1 [Example 56, N-(4-(4-((2-(methylsulfonyl)ethyl)sulfonamido)phenyl)-1H-pyrrolo[2,3-b]pyridin-6-yl)cyclopropanecarboxamide] | < 0.02 |
| O=C(Nc1cc(-c2ccc(NS(=O)(=O)C3CC3)cc2)c2cc[nH]c2n1)C1CC1 [Example 57, N-(4-(4-(cyclopropanesulfonamido)phenyl)-1H-pyrrolo[2,3-b]pyridin-6-yl)cyclopropanecarboxamide] | < 0.02 |
| O=C(Nc1cc(-c2ccc(NS(=O)(=O)C3CCC3)cc2)c2cc[nH]c2n1)C1CC1 [Example 58, N-(4-(4-(cyclobutanesulfonamido)phenyl)-1H-pyrrolo[2,3-b]pyridin-6-yl)cyclopropanecarboxamide] | < 0.02 |
| CCS(=O)(=O)Nc1ccc(-c2cc(NC(=O)C3CC3)nc3[nH]ccc23)cc1C#N [Example 59, N-(4-(3-cyano-4-(ethylsulfonamido)phenyl)-1H-pyrrolo[2,3-b]pyridin-6-yl)cyclopropanecarboxamide] | > 0.2 |
| CCS(=O)(=O)Nc1ccc(-c2cc(NC(=O)C3CC3)nc3c2ccn3C)cc1F [Example 60, N-(4-(4-(ethylsulfonamido)-3-fluorophenyl)-1-methyl-1H-pyrrolo[2,3-b]pyridin-6-yl)cyclopropanecarboxamide] | > 0.2 |
